Laboratory results published in patent US10004701B2, “Methods and compositions for treating infection” (UNIVERSITY OF ROCHESTER, priority 2012, dated 2018).
Structures can show the parent of a compound that is named as a salt. Where two headings read alike, the source gives them in different places. Where a SMILES comes first, the peptide text is derived from it. [ ]: non-standard residue; d: D form. The star is where a group is joined. Sta = CC(C)C[C@H](N)[C@@H](O)CC(=O)O; Isovaleryl = CC(C)CC(=O)*

Legend:
Assay in all cases: AK assay 384-well format, Prestwick library screening
E. coli = assay type: cell-based, Escherichia coli; conditions: 50 μM final drug concentration; for fold induction at 50 µM: Escherichia coli, 3 h
K. pneumoniae = assay type: cell-based, Klebsiella pneumoniae; conditions: 50 μM final drug concentration; for fold induction at 50 µM: Klebsiella pneumoniae, 3 h
P. aeruginosa = assay type: cell-based, Pseudomonas aeruginosa; conditions: 50 μM final drug concentration; for fold induction at 50 µM: Pseudomonas aeruginosa, 3 h
[1] = test system: S. aureus strain USA300-0114; assay type: cell-based, Staphylococcus aureus; conditions: 50 μM final drug concentration; for fold induction at 50 µM: Staphylococcus aureus, USA300, 3 h
[2] = test system: A. baumannii strain 98-37-09; assay type: cell-based, Acinetobacter baumannii; conditions: 50 μM final drug concentration; for fold induction at 50 µM: Acinetobacter baumannii, 983709, 3 h
E. cloacae = assay type: cell-based, Enterobacter cloacae; conditions: 50 μM final drug concentration; for fold induction at 50 µM: Enterobacter cloacae, 3 h
E. faecium = assay type: cell-based, Enterococcus faecium; conditions: 50 μM final drug concentration; for fold induction at 50 µM: Enterococcus faecium, 3 h
[3] = planktonic E. coli, 384-well, cutoff for positive-scoring molecules 3-fold increase, read-out: AK-based Prestwick Library Screening Results: E. coli (increase in extracellular AK activity)
[4] = planktonic K. pneumoniae, 384-well, cutoff for positive-scoring molecules 3-fold increase, read-out: AK-based Prestwick Library Screening Results: K. pneumoniae (increase in extracellular AK activity)
[5] = planktonic P. aeruginosa, 384-well, cutoff for positive-scoring molecules 3-fold increase, read-out: AK-based Prestwick Library Screening Results: P. aeruginosa (increase in extracellular AK activity)
[6] = planktonic S. aureus, 384-well, cutoff for positive-scoring molecules 3-fold increase, read-out: AK-based Prestwick Library Screening Results: S. aureus (increase in extracellular AK activity)
[7] = planktonic A. baumannii, 384-well, cutoff for positive-scoring molecules 3-fold increase, read-out: AK-based Prestwick Library Screening Results: A. baumannii (increase in extracellular AK activity)
[8] = planktonic E. cloacae, 384-well, cutoff for positive-scoring molecules 3-fold increase, read-out: AK-based Prestwick Library Screening Results: E. cloacae (increase in extracellular AK activity)
[9] = planktonic E. faecium, 384-well, cutoff for positive-scoring molecules 3-fold increase, read-out: AK-based Prestwick Library Screening Results: E. faecium (increase in extracellular AK activity)
[10] = 384-well format, cutoff for positive-scoring molecules 3-fold increase, read-out: AK-based Prestwick Library Screening Results, E. coli (increase in extracellular AK activity)
[11] = 384-well format, cutoff for positive-scoring molecules 3-fold increase, read-out: AK-based Prestwick Library Screening Results, K. pneumoniae (increase in extracellular AK activity)
[12] = 384-well format, cutoff for positive-scoring molecules 3-fold increase, read-out: AK-based Prestwick Library Screening Results, P. aeruginosa (increase in extracellular AK activity)
[13] = 384-well format, cutoff for positive-scoring molecules 3-fold increase, read-out: AK-based Prestwick Library Screening Results, S. aureus (increase in extracellular AK activity)
[14] = 384-well format, cutoff for positive-scoring molecules 3-fold increase, read-out: AK-based Prestwick Library Screening Results, A. baumannii (increase in extracellular AK activity)
[15] = 384-well format, cutoff for positive-scoring molecules 3-fold increase, read-out: AK-based Prestwick Library Screening Results, E. cloacae (increase in extracellular AK activity)
[16] = 384-well format, cutoff for positive-scoring molecules 3-fold increase, read-out: AK-based Prestwick Library Screening Results, E. faecium (increase in extracellular AK activity)
[17] = planktonic, cutoff for positive-scoring molecules 3-fold increase

## C[C@H]1CC[C@]2(NC1)O[C@H]1C[C@H]3[C@@H]4CC[C@H]5C[C@@H](O[C@@H]6O[C@H](CO)[C@H](O[C@@H]7O[C@H](CO)[C@@H](O)[C@H](O[C@@H]8OC[C@@H](O)[C@H](O)[C@H]8O)[C@H]7O[C@@H]7O[C@H](CO)[C@@H](O)[C@H](O)[C@H]7O)[C@H](O)[C@H]6O)CC[C@]5(C)[C@H]4CC[C@]3(C)[C@H]1[C@@H]2C [Tomatine]
E. coli; 384-well format, […], read-out: AK-based Prestwick Library Screening Results, E. coli (increase in extracellular AK activity)
  fold induction at 50 µM: 0.9
K. pneumoniae; 384-well format, […], read-out: AK-based Prestwick Library Screening Results, K. pneumoniae (increase in extracellular AK activity)
  fold induction at 50 µM: 0.7
P. aeruginosa; 384-well format, […], read-out: AK-based Prestwick Library Screening Results, P. aeruginosa (increase in extracellular AK activity)
  fold induction at 50 µM: 0.8
[1]; 384-well format, […], read-out: AK-based Prestwick Library Screening Results, S. aureus (increase in extracellular AK activity)
  fold induction at 50 µM: 0.8
[2]; 384-well format, […], read-out: AK-based Prestwick Library Screening Results, A. baumannii (increase in extracellular AK activity)
  fold induction at 50 µM: 1
E. cloacae; 384-well format, […], read-out: AK-based Prestwick Library Screening Results, E. cloacae (increase in extracellular AK activity)
  fold induction at 50 µM: 1.1
E. faecium; 384-well format, […], read-out: AK-based Prestwick Library Screening Results, E. faecium (increase in extracellular AK activity)
  fold induction at 50 µM: 1

## CN1CCc2cc3c(cc2[C@H]1[C@@H]1OC(=O)c2c1ccc1c2OCO1)OCO3 [Bicuculline (+)]
E. coli; planktonic E. coli, […]
  AK-based Prestwick Library Screening Results, E. coli (increase in extracellular AK activity): 0.8
K. pneumoniae; planktonic K. pneumoniae, […]
  AK-based Prestwick Library Screening Results, K. pneumoniae (increase in extracellular AK activity): 0.8
P. aeruginosa; planktonic P. aeruginosa, […]
  AK-based Prestwick Library Screening Results, P. aeruginosa (increase in extracellular AK activity): 0.9
[1]; planktonic S. aureus, […]
  AK-based Prestwick Library Screening Results, S. aureus (increase in extracellular AK activity): 0.6
[2]; planktonic A. baumannii, […]
  AK-based Prestwick Library Screening Results, A. baumannii (increase in extracellular AK activity): 0.8
E. cloacae; planktonic E. cloacae, […]
  AK-based Prestwick Library Screening Results, E. cloacae (increase in extracellular AK activity): 0.9
E. faecium; planktonic E. faecium, […]
  AK-based Prestwick Library Screening Results, E. faecium (increase in extracellular AK activity): 0.9

## CN1C(C(=O)Nc2ccccn2)=C(O)c2ccccc2S1(=O)=O [Piroxicam]
E. coli; [3]
  fold induction at 50 µM: 1.2
K. pneumoniae; [4]
  fold induction at 50 µM: 1
P. aeruginosa; [5]
  fold induction at 50 µM: 1.2
[1]; [6]
  fold induction at 50 µM: 1.4
[2]; [7]
  fold induction at 50 µM: 1
E. cloacae; [8]
  fold induction at 50 µM: 1.4
E. faecium; [9]
  fold induction at 50 µM: 1.1

## C=C(CC)C(=O)c1ccc(OCC(=O)O)c(Cl)c1Cl [Ethacrynic acid]
E. coli; [10]
  fold induction at 50 µM: 0.7
K. pneumoniae; [11]
  fold induction at 50 µM: 0.6
P. aeruginosa; [12]
  fold induction at 50 µM: 0.7
[1]; [13]
  fold induction at 50 µM: 1.4
[2]; [14]
  fold induction at 50 µM: 0.8
E. cloacae; [15]
  fold induction at 50 µM: 0.8
E. faecium; [16]
  fold induction at 50 µM: 1.3

## Cc1ccc(Cl)c(Nc2ccccc2C(=O)O)c1Cl
E. coli; [3]
  fold induction at 50 µM: 1.1
K. pneumoniae; [4]
  fold induction at 50 µM: 1
P. aeruginosa; [5]
  fold induction at 50 µM: 1.2
[1]; [6]
  fold induction at 50 µM: 0.6
[2]; [7]
  fold induction at 50 µM: 1.2
E. cloacae; [8]
  fold induction at 50 µM: 1.4
E. faecium; [9]
  fold induction at 50 µM: 1.2

## Nc1ncnc2c1ncn2[C@@H]1O[C@H](CO)[C@@H](O)[C@@H]1O [Vidarabine]
E. coli; planktonic, cutoff for positive-scoring molecules 3-fold increase, read-out: AK-based Prestwick Library Screening Results, E. coli (fold increase in extracellular AK activity)
  fold induction at 50 µM: 1.1
K. pneumoniae; planktonic, cutoff for positive-scoring molecules 3-fold increase, read-out: AK-based Prestwick Library Screening Results, K. pneumoniae (fold increase in extracellular AK activity)
  fold induction at 50 µM: 0.7
P. aeruginosa; planktonic, cutoff for positive-scoring molecules 3-fold increase, read-out: AK-based Prestwick Library Screening Results, P. aeruginosa (fold increase in extracellular AK activity)
  fold induction at 50 µM: 1
[1]; planktonic, cutoff for positive-scoring molecules 3-fold increase, read-out: AK-based Prestwick Library Screening Results, S. aureus (fold increase in extracellular AK activity)
  fold induction at 50 µM: 1.5
[2]; planktonic, cutoff for positive-scoring molecules 3-fold increase, read-out: AK-based Prestwick Library Screening Results, A. baumannii (fold increase in extracellular AK activity)
  fold induction at 50 µM: 1
E. cloacae; planktonic, cutoff for positive-scoring molecules 3-fold increase, read-out: AK-based Prestwick Library Screening Results, E. cloacae (fold increase in extracellular AK activity)
  fold induction at 50 µM: 1.8
E. faecium; planktonic, cutoff for positive-scoring molecules 3-fold increase, read-out: AK-based Prestwick Library Screening Results, E. faecium (fold increase in extracellular AK activity)
  fold induction at 50 µM: 1.1

## C#CCN(C)Cc1ccccc1 [Pargyline hydrochloride]
E. coli; [10]
  fold induction at 50 µM: 1
K. pneumoniae; [11]
  fold induction at 50 µM: 0.8
P. aeruginosa; [12]
  fold induction at 50 µM: 1
[1]; [13]
  fold induction at 50 µM: 0.8
[2]; [14]
  fold induction at 50 µM: 0.9
E. cloacae; [15]
  fold induction at 50 µM: 0.9
E. faecium; [16]
  fold induction at 50 µM: 0.9

## Fc1ccc([C@@H]2CCNC[C@H]2COc2ccc3c(c2)OCO3)cc1 [Paroxetine Hydrochloride]
E. coli; cutoff for positive-scoring molecules 3-fold increase, read-out: AK-based Prestwick Library Screening Results, E. coli (fold increase in extracellular AK activity)
  fold induction at 50 µM: 1.4
K. pneumoniae; cutoff for positive-scoring molecules 3-fold increase, read-out: AK-based Prestwick Library Screening Results, K. pneumoniae (fold increase in extracellular AK activity)
  fold induction at 50 µM: 1.2
P. aeruginosa; cutoff for positive-scoring molecules 3-fold increase, read-out: AK-based Prestwick Library Screening Results, P. aeruginosa (fold increase in extracellular AK activity)
  fold induction at 50 µM: 1.3
[1]; cutoff for positive-scoring molecules 3-fold increase, read-out: AK-based Prestwick Library Screening Results, S. aureus (fold increase in extracellular AK activity)
  fold induction at 50 µM: 1.4
[2]; cutoff for positive-scoring molecules 3-fold increase, read-out: AK-based Prestwick Library Screening Results, A. baumannii (fold increase in extracellular AK activity)
  fold induction at 50 µM: 1.3
E. cloacae; cutoff for positive-scoring molecules 3-fold increase, read-out: AK-based Prestwick Library Screening Results, E. cloacae (fold increase in extracellular AK activity)
  fold induction at 50 µM: 1.6
E. faecium; cutoff for positive-scoring molecules 3-fold increase, read-out: AK-based Prestwick Library Screening Results, E. faecium (fold increase in extracellular AK activity)
  fold induction at 50 µM: 0.9

## CC(C)CC(=O)N[C@H](C(=O)N[C@H](C(=O)N[C@@H](CC(C)C)[C@@H](O)CC(=O)N[C@@H](C)C(=O)N[C@@H](CC(C)C)[C@@H](O)CC(=O)O)C(C)C)C(C)C [Pepstatin A] (Isovaleryl-VV[Sta]A[Sta]-OH)
E. coli; planktonic E. coli, 384-well, […]
  AK-based Prestwick Library Screening Results: E. coli (increase in extracellular AK activity): 0.5
K. pneumoniae; planktonic K. pneumoniae, 384-well, […]
  AK-based Prestwick Library Screening Results: K. pneumoniae (increase in extracellular AK activity): 0.5
P. aeruginosa; planktonic P. aeruginosa, 384-well, […]
  AK-based Prestwick Library Screening Results: P. aeruginosa (increase in extracellular AK activity): 0.4
[1]; planktonic S. aureus, 384-well, […]
  AK-based Prestwick Library Screening Results: S. aureus (increase in extracellular AK activity): 0.4
[2]; planktonic A. baumannii, 384-well, […]
  AK-based Prestwick Library Screening Results: A. baumannii (increase in extracellular AK activity): 0.4
E. cloacae; planktonic E. cloacae, 384-well, […]
  AK-based Prestwick Library Screening Results: E. cloacae (increase in extracellular AK activity): 0.4
E. faecium; planktonic E. faecium, 384-well, […]
  AK-based Prestwick Library Screening Results: E. faecium (increase in extracellular AK activity): 0.8

## Spiramycin
E. coli; [17]
  AK-based Prestwick Library Screening Results, E. coli (fold increase in extracellular AK activity): 0.9
K. pneumoniae; [17]
  AK-based Prestwick Library Screening Results, K. pneumoniae (fold increase in extracellular AK activity): 0.8
P. aeruginosa; [17]
  AK-based Prestwick Library Screening Results, P. aeruginosa (fold increase in extracellular AK activity): 0.7
[1]; [17]
  AK-based Prestwick Library Screening Results, S. aureus (fold increase in extracellular AK activity): 6.6
[2]; [17]
  AK-based Prestwick Library Screening Results, A. baumannii (fold increase in extracellular AK activity): 0.9
E. cloacae; [17]
  AK-based Prestwick Library Screening Results, E. cloacae (fold increase in extracellular AK activity): 1.2
E. faecium; [17]
  AK-based Prestwick Library Screening Results, E. faecium (fold increase in extracellular AK activity): 1.0
